Results: PubChem BioAssay AID248 (DTP/NCI, 2004)
Several values for one entry are separate records, joined by “and”; a condition that tells them apart may be missing. Equal values may be shown once. Inconclusive results and toxic doses are left out.

Test system: L1210 leukemia ip in BDF1 mice, survival T/C
Assay: NCI In Vivo Anticancer Drug Screen. Data for tumor model L1210 Leukemia (intraperitoneal) in B6D2F1 (BDF1) mice
Details: endpoint: mean survival time, higher = longer survival
Summary of the method: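 Transplanted-tumor mice were given test agent; controls received vehicle only. Survival readings from the two groups were divided (treated over control).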

[1] = dose: 100.0 mg/kg/injection, schedule: Q01DX009 (ip), vehicle: Klucel (hydroxypropylcellulose) (HPC)
[2] = dose: 100.0 mg/kg/injection, schedule: Q04DX003 (ip), vehicle: saline with Tween-80
[3] = dose: 200.0 mg/kg/injection, schedule: Q04DX003 (ip), vehicle: saline with Tween-80
[4] = dose: 200.0 mg/kg/injection, schedule: Q01DX009 (ip), vehicle: Klucel (hydroxypropylcellulose) (HPC)
[5] = dose: 400.0 mg/kg/injection, schedule: Q01DX009 (ip), vehicle: Klucel (hydroxypropylcellulose) (HPC)
[6] = dose: 200.0 mg/kg/injection, schedule: Q04DX003 (ip), vehicle: saline
[7] = dose: 400.0 mg/kg/injection, schedule: Q04DX003 (ip), vehicle: saline with Tween-80

## OCC1OC(n2cnc3c(Cl)ncnc32)C(O)C1O (stereo not drawn)
dose: 62.5 mg/kg/injection, schedule: Q01DX009 (ip), vehicle: saline
  T/C: 96 % of control
dose: 62.5 mg/kg/injection, schedule: Q01DX010 (ip), vehicle: saline
  T/C: 102 % of control
dose: 62.5 mg/kg/injection, schedule: Q01DX Z (ip), vehicle: carboxymethylcellulose (CMC)
  T/C: 102 % of control
[1]
  T/C: 102 % of control
dose: 125.0 mg/kg/injection, schedule: Q01DX009 (ip), vehicle: saline
  T/C: 93 % of control and 89 % of control
dose: 125.0 mg/kg/injection, schedule: Q01DX010 (ip), vehicle: saline
  T/C: 89 % of control and 92 % of control
dose: 125.0 mg/kg/injection, schedule: Q01DX Z (ip), vehicle: carboxymethylcellulose (CMC)
  T/C: 96 % of control
dose: 250.0 mg/kg/injection, schedule: Q01DX009 (ip), vehicle: saline
  T/C: 96 % of control and 91 % of control
dose: 250.0 mg/kg/injection, schedule: Q01DX010 (ip), vehicle: saline
  T/C: 100 % of control and 92 % of control
dose: 250.0 mg/kg/injection, schedule: Q01DX Z (ip), vehicle: carboxymethylcellulose (CMC)
  T/C: 110 % of control
dose: 300.0 mg/kg/injection, schedule: Q01DX009 (ip), vehicle: Klucel (hydroxypropylcellulose) (HPC)
  T/C: 101 % of control
dose: 440.0 mg/kg/injection, schedule: Q01DX001 (ip), vehicle: carboxymethylcellulose (CMC)
  T/C: 96 % of control
dose: 500.0 mg/kg/injection, schedule: Q01DX009 (ip), vehicle: Klucel (hydroxypropylcellulose) (HPC)
  T/C: 100 % of control
dose: 500.0 mg/kg/injection, schedule: Q01DX009 (ip), vehicle: saline
  T/C: 96 % of control and 98 % of control
dose: 500.0 mg/kg/injection, schedule: Q01DX010 (ip), vehicle: saline
  T/C: 97 % of control and 88 % of control
dose: 500.0 mg/kg/injection, schedule: Q01DX Z (ip), vehicle: carboxymethylcellulose (CMC)
  T/C: 94 % of control
dose: 670.0 mg/kg/injection, schedule: Q01DX001 (ip), vehicle: carboxymethylcellulose (CMC)
  T/C: 95 % of control
dose: 1000.0 mg/kg/injection, schedule: Q01DX001 (ip), vehicle: carboxymethylcellulose (CMC)
  T/C: 95 % of control
dose: 1000.0 mg/kg/injection, schedule: Q01DX009 (ip), vehicle: Klucel (hydroxypropylcellulose) (HPC)
  T/C: 106 % of control
dose: 1500.0 mg/kg/injection, schedule: Q01DX001 (ip), vehicle: carboxymethylcellulose (CMC)
  T/C: 90 % of control
dose: 2250.0 mg/kg/injection, schedule: Q01DX001 (ip), vehicle: carboxymethylcellulose (CMC)
  T/C: 97 % of control

## CC(=O)OCC#CCOC(C)=O
dose: 50.0 mg/kg/injection, schedule: Q04DX003 (ip), vehicle: saline with Tween-80
  T/C: 100 % of control
[2]
  T/C: 97 % of control
[3]
  T/C: 97 % of control

## CC(C)c1ccc(NC(=O)c2ccc(Cl)c(Cl)c2)cc1
[1]
  T/C: 98 % of control
[4]
  T/C: 91 % of control
[5]
  T/C: 93 % of control

## COc1ccc(NC(c2ccco2)P(=O)(c2ccccc2)c2ccccc2)cc1 (stereo not drawn)
[1]
  T/C: 91 % of control
[4]
  T/C: 104 % of control
[5]
  T/C: 98 % of control

## O=Cc1c[nH]c(=O)[nH]c1=O
dose: 50.0 mg/kg/injection, schedule: Q01DX009 (ip), vehicle: saline
  T/C: 109 % of control
dose: 100.0 mg/kg/injection, schedule: Q01DX001 (ip), vehicle: Klucel (hydroxypropylcellulose) (HPC)
  T/C: 94 % of control
dose: 100.0 mg/kg/injection, schedule: Q01DX009 (ip), vehicle: saline
  T/C: 103 % of control
dose: 100.0 mg/kg/injection, schedule: Q04DX003 (ip), vehicle: saline
  T/C: 95 % of control
dose: 200.0 mg/kg/injection, schedule: Q01DX001 (ip), vehicle: Klucel (hydroxypropylcellulose) (HPC)
  T/C: 105 % of control
dose: 200.0 mg/kg/injection, schedule: Q01DX009 (ip), vehicle: saline
  T/C: 106 % of control
[6]
  T/C: 103 % of control
dose: 400.0 mg/kg/injection, schedule: Q01DX001 (ip), vehicle: Klucel (hydroxypropylcellulose) (HPC)
  T/C: 101 % of control
dose: 400.0 mg/kg/injection, schedule: Q04DX003 (ip), vehicle: saline
  T/C: 95 % of control

## C#CC[P+](c1ccccc1)(c1ccccc1)c1ccccc1
dose: 6.25 mg/kg/injection, schedule: Q01DX001 (ip), vehicle: saline
  T/C: 106 % of control
dose: 12.5 mg/kg/injection, schedule: Q01DX001 (ip), vehicle: saline
  T/C: 109 % of control
dose: 25.0 mg/kg/injection, schedule: Q01DX001 (ip), vehicle: saline
  T/C: 116 % of control and 118 % of control

## c1nnc(NCNc2nncs2)s1
dose: 2.6 mg/kg/injection, schedule: Q01DX009 (ip), vehicle: Klucel (hydroxypropylcellulose) (HPC)
  T/C: 115 % of control
dose: 6.0 mg/kg/injection, schedule: Q01DX009 (ip), vehicle: Klucel (hydroxypropylcellulose) (HPC)
  T/C: 124 % of control
dose: 7.5 mg/kg/injection, schedule: Q01DX009 (ip), vehicle: saline
  T/C: 122 % of control
dose: 12.0 mg/kg/injection, schedule: Q04DX003 (ip), vehicle: Klucel (hydroxypropylcellulose) (HPC)
  T/C: 121 % of control
dose: 15.0 mg/kg/injection, schedule: Q01DX009 (ip), vehicle: saline
  T/C: 120 % of control
dose: 18.0 mg/kg/injection, schedule: Q04DX003 (ip), vehicle: Klucel (hydroxypropylcellulose) (HPC)
  T/C: 122 % of control
dose: 19.0 mg/kg/injection, schedule: Q01DX009 (ip), vehicle: saline
  T/C: 154 % of control
dose: 20.0 mg/kg/injection, schedule: Q01DX009 (ip), vehicle: Klucel (hydroxypropylcellulose) (HPC)
  T/C: 109 % of control
dose: 30.0 mg/kg/injection, schedule: Q01DX009 (ip), vehicle: Klucel (hydroxypropylcellulose) (HPC)
  T/C: 95 % of control
dose: 30.0 mg/kg/injection, schedule: Q01DX009 (ip), vehicle: saline
  T/C: 166 % of control
dose: 45.0 mg/kg/injection, schedule: Q01DX009 (ip), vehicle: Klucel (hydroxypropylcellulose) (HPC)
  T/C: 87 % of control
dose: 45.0 mg/kg/injection, schedule: Q01DX009 (ip), vehicle: saline
  T/C: 114 % of control
dose: 50.0 mg/kg/injection, schedule: Q01DX001 (ip), vehicle: saline
  T/C: 110 % of control
dose: 50.0 mg/kg/injection, schedule: Q04DX003 (ip), vehicle: saline
  T/C: 111 % of control
dose: 60.0 mg/kg/injection, schedule: Q01DX009 (ip), vehicle: saline
  T/C: 115 % of control
dose: 100.0 mg/kg/injection, schedule: Q01DX001 (ip), vehicle: saline
  T/C: 117 % of control
[6]
  T/C: 167 % of control and 168 % of control
dose: 300.0 mg/kg/injection, schedule: Q04DX003 (ip), vehicle: Klucel (hydroxypropylcellulose) (HPC)
  T/C: 106 % of control
dose: 300.0 mg/kg/injection, schedule: Q04DX003 (ip), vehicle: saline
  T/C: 113 % of control

## COC(=O)C1=C(N)CCc2ccccc21
[2]
  T/C: 97 % of control
[3]
  T/C: 103 % of control
[7]
  T/C: 101 % of control

## CCCCCCCCCCNC(=O)C[n+]1cccc(C(=O)Nc2ccccc2)c1
dose: 3.12 mg/kg/injection, schedule: Q01DX009 (ip), vehicle: saline with Tween-80
  T/C: 100 % of control
dose: 6.25 mg/kg/injection, schedule: Q01DX009 (ip), vehicle: saline with Tween-80
  T/C: 105 % of control
dose: 12.5 mg/kg/injection, schedule: Q01DX009 (ip), vehicle: saline with Tween-80
  T/C: 88 % of control
dose: 12.5 mg/kg/injection, schedule: Q04DX003 (ip), vehicle: saline
  T/C: 103 % of control
dose: 25.0 mg/kg/injection, schedule: Q04DX003 (ip), vehicle: saline
  T/C: 88 % of control

## COc1ccc(/C=N/NC(=O)CNC(=O)Nc2cccc(Cl)c2Cl)cc1
dose: 50.0 mg/kg/injection, schedule: Q01DX009 (ip), vehicle: saline with Tween-80
  T/C: 93 % of control
dose: 100.0 mg/kg/injection, schedule: Q01DX009 (ip), vehicle: saline with Tween-80
  T/C: 96 % of control

## O=Nc1ccc(O)c(=O)cc1
dose: 1.0 mg/kg/injection, schedule: Q01DX009 (ip), vehicle: saline
  T/C: 90 % of control
dose: 1.0 mg/kg/injection, schedule: Q04DX003 (ip), vehicle: saline
  T/C: 100 % of control
dose: 2.0 mg/kg/injection, schedule: Q01DX009 (ip), vehicle: saline
  T/C: 90 % of control
dose: 2.0 mg/kg/injection, schedule: Q04DX003 (ip), vehicle: saline
  T/C: 97 % of control
dose: 4.0 mg/kg/injection, schedule: Q01DX009 (ip), vehicle: saline
  T/C: 97 % of control
dose: 4.0 mg/kg/injection, schedule: Q04DX003 (ip), vehicle: saline
  T/C: 109 % of control

## COc1ccc(C=Nc2ccc([N+](=O)[O-])cc2O)cc1
dose: 100.0 mg/kg/injection, schedule: Q01DX001 (ip), vehicle: carboxymethylcellulose (CMC)
  T/C: 96 % of control
dose: 200.0 mg/kg/injection, schedule: Q01DX001 (ip), vehicle: carboxymethylcellulose (CMC)
  T/C: 94 % of control
dose: 400.0 mg/kg/injection, schedule: Q01DX001 (ip), vehicle: carboxymethylcellulose (CMC)
  T/C: 90 % of control

## CCOc1cc(-c2nc(-c3ccc(N=Cc4ccc(N(CCCOS(C)(=O)=O)CCCOS(C)(=O)=O)cc4C)cc3)cs2)ccc1OCc1ccccc1
[2]
  T/C: 91 % of control
[3]
  T/C: 86 % of control
[7]
  T/C: 89 % of control
